Results: patent US11667638B2, “4-substitued cytisine analogues” (The University of Bristol, priority 2016, dated 2023)

Key:
[1] = target: (α4)3(β2)2 nAChRs (Homo sapiens (Human), UniProt P17787+P43681); assay: Maximal gating efficacy on (α4)3(β2)2 nAChRs in Xenopus oocytes, two electrode voltage clamp; assay type: cell-based; settings: (α4)3(β2)2, low sensitivity stoichiometry; maximal current relative to 1 mM ACh
Experimental: (§1) Compounds of the invention were tested for effects on the function of human α4β2, α3β4 and α7 nicotinic acetylcholine receptors (nAChRs) expressed heterologously in Xenopus oocytes. […] Expression in oocytes was obtained as follows: pCI (Promega, UK) plasmid containing human α4, β2, β4 or α7 complementary DNA were injected as previously described (Moroni et al., 2006). To express (α4)3(β2)2 nACh receptors, a mixture of 10α4:1β2 cDNAs was injected into the nucleus of oocytes, whereas for (α4)2(β2)3 receptors the cDNA ratio injected was 1α4:10β2.
(§2) Functional studies: Recordings were performed manually using a Geneclamp amplifier (Molecular Devices, USA) or using an automated HiClamp system. In both cases the oocytes were impaled with two electrodes filled with 3 M KCl and the cells were held at −60 mV throughout the experiments.
(§3) Oocyte isolation and two-electrode voltage-clamp recordings on oocytes were carried out as previously described (Moroni et al., 2006; Carbone et al., 2009). […] A minimum interval of 5 min was allowed between agonist applications to ensure reproducible recordings. Oocytes were exposed to increasing concentrations of the compounds until no further increases in the response amplitude were obtained. This concentration was taken as the concentration that causes maximal responses on the receptors tested. The data summarised in Tables 1-4 were obtained from at least 5 experiments carried out on oocytes obtained from at least three different donors.
Maximal gating efficacy of the compounds: The concentration of the compounds of the invention causing maximal activation of the (α4)3(β2)2 nAChRs expressed heterologously in Xenopus oocytes was determined using two electrode voltage clamping.

[2] = target: α3β4 nAChRs (Homo sapiens (Human), UniProt P30926+P32297); assay: Maximal gating efficacy on α3β4 nAChRs in Xenopus oocytes, two electrode voltage clamp; assay type: cell-based; settings: maximal current relative to 1 mM ACh
Experimental: as §1, §2, §3
Maximal gating efficacy of the compounds on α3β4 nAChRs: The concentration of the compounds causing maximal activation of α3β4 nAChRs expressed heterologously in Xenopus oocytes was determined using two electrode voltage clamping.

[3] = target: α4β2 nAChR (Homo sapiens (Human), UniProt P17787+P43681); assay type: binding; settings: ratio of Ki values
Experimental: HEK 293 cells were grown in Dulbecco's modified Eagle medium supplemented with 10% fetal bovine serum, 1% L-Glutamine, 100 units/ml penicillin G, and 100 μg/streptomycin in a humidified atmosphere containing 10% CO2. The cDNAs encoding α3 and β4 or α4 and β2 (were transfected into the HEK 293 cells at 30% confluency). The cell transfections were carried out in 100 mm Petri dishes using 30 μL of JetPEI™ (Polypus, France) (1 mg/ml, pH 7.2) and 3 μg of each cDNA. After 24 h transfection, the cells were collected, washed with PBS by centrifugation, and used for binding analysis.
[^3H]-epibatidine saturation binding experiments to HEK transfected α3β4 or α4β2 receptors were performed by means of overnight incubation at 4° C. at concentrations ranging from 0.005 to 1 nM in a buffer containing 50 mM Tris-HCl, pH 7, 150 mM NaCl, 5 mM KCl, 1 mM MgCl2, 2.5 mM CaCl2 and 2 mg/ml BSA, in the presence (aspecific binding) or absence (total binding) of 100 nM cold epibatidine. Specific ligand binding was defined as total binding minus the binding in the presence of 100 nM cold epibatidine.
After incubation, the membranes of HEK cells transfected with α4β2* or α3β4 subtypes were washed by filtration on GFC filters with ice-cold PBS. The GFC filters were pre-soaked in polyethylenimine and filtered through an harvester apparatus. [^3H]-epibatidine binding was determined by means of liquid scintillation counting in a beta counter.
The ligand binding data were analyzed by means of nonlinear regression using Prism version 5 (GraphPad Software, Inc., La Jolla, Calif.). The Ki values were calculated from the experimental IC50 values using the Cheng-Prusoff equation for a single population of competitive sites: Ki=IC50/[1+(L/Kd)], where L is the concentration of radioligand used in each experiment and the Kd values were determined by saturation binding experiment. All of the assays were performed in duplicate and repeated at least two-three times.

[4] = target: (α4)2(β2)3 nAChRs (Homo sapiens (Human), UniProt P17787+P43681); assay: Maximal gating efficacy on (α4)2(β2)3 nAChRs in Xenopus oocytes, two electrode voltage clamp; assay type: cell-based; settings: (α4)2(β2)3, high sensitivity receptors; maximal current relative to 1 mM ACh
Experimental: as §1, §2, §3
Maximal gating efficacy of compounds on (α4)2(β2)3 receptors (high sensitivity receptors): The concentration of the compounds causing maximal activation of the (α4)2(β2)3 nAChRs expressed heterologously in Xenopus oocytes was determined using two electrode voltage clamping.

Sequence of (α4)3(β2)2 nAChRs (P43681 29-627): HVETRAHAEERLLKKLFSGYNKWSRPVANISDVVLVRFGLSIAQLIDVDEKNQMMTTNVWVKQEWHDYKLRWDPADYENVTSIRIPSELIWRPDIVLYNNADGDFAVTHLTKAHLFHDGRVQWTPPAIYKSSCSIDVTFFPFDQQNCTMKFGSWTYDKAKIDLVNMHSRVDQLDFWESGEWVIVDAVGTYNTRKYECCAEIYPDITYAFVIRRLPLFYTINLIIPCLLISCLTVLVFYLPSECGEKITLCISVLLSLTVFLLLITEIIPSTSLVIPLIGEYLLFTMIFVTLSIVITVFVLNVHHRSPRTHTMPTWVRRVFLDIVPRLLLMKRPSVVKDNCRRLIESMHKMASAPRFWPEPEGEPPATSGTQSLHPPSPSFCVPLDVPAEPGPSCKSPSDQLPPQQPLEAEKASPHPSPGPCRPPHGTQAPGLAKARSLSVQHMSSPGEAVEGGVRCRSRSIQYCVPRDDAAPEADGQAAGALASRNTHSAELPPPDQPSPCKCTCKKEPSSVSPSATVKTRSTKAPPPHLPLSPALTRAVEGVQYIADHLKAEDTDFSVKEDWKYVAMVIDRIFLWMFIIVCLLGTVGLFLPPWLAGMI
Sequence of (α4)3(β2)2 nAChRs (P17787 26-502): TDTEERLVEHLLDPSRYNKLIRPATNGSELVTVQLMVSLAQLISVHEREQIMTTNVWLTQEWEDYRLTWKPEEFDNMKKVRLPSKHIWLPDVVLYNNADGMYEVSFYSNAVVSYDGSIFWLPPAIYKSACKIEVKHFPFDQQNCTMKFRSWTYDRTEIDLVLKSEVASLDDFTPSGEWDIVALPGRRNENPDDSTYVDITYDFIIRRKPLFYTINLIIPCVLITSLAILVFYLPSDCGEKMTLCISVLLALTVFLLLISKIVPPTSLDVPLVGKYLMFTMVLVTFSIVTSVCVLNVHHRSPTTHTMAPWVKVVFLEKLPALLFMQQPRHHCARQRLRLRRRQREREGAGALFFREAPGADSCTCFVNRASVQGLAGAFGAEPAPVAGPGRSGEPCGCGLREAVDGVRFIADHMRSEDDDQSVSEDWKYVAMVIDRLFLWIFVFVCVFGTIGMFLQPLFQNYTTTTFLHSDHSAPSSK
Sequence of α4β2 nAChR (P43681 29-627 limits assumed): as the sequence (P43681 29-627) above
Sequence of α4β2 nAChR (P17787 26-502 limits assumed): as the sequence (P17787 26-502) above
Sequence of (α4)2(β2)3 nAChRs (P43681 29-627): as the sequence (P43681 29-627) above
Sequence of (α4)2(β2)3 nAChRs (P17787 26-502): as the sequence (P17787 26-502) above
Sequence of α3β4 nAChRs (P32297 32-505): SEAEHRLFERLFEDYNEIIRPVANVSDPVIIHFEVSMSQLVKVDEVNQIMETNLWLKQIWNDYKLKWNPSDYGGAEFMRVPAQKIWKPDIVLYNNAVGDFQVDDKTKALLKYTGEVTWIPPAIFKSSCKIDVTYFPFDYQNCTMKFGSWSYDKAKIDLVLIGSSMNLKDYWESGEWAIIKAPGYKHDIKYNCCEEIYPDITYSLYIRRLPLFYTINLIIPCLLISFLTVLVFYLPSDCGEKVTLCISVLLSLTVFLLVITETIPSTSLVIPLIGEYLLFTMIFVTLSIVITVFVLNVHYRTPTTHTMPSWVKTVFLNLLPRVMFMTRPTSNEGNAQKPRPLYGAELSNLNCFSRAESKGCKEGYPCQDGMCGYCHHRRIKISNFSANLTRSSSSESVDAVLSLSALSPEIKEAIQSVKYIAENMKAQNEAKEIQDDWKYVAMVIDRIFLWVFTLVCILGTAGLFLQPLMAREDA
Sequence of α3β4 nAChRs (P30926 22-498): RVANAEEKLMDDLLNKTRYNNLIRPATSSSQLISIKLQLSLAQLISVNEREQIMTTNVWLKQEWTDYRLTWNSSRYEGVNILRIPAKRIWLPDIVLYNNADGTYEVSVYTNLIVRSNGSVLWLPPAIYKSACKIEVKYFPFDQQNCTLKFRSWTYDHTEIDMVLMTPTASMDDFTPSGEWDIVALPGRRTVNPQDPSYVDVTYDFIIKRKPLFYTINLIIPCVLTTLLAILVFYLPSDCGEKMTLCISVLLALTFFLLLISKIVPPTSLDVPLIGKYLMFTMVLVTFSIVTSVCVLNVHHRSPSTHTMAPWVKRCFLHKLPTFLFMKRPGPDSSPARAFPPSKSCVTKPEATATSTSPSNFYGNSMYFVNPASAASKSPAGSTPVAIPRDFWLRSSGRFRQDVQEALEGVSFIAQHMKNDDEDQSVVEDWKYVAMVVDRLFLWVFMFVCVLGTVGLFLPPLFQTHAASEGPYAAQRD

| Molecule | Relative efficacy (ACh) [1] | Relative efficacy (ACh) [2] | Ratio α3β4/α4β2 [3] | Relative efficacy (ACh) [4] |
| --- | --- | --- | --- | --- |
| Nc1cc2n(c(=O)c1Br)CC1CNCC2C1 (single isomer, unassigned; (+)) [BS71, (+)-(3-bromo-4-amino)cytisine] | 0.152 ± 0.1223 | 0.632 ± 0.067 |  |  |
| Nc1cc2n(c(=O)c1)CC1CNC[C@@H]2C1 (single isomer, unassigned; (+)) [Compound 81, (+)4-aminocytisine] | 0.007 ± 0.01061 | 0.0210 ± 0.008 | 1561.0 | 0.024 ± 0.034 |
| CNc1cc2n(c(=O)c1)CC1CNC[C@@H]2C1 (single isomer, unassigned; (+)) [Compound 84, (+)4-(N-Methylamino)cytisine] | 0.048 ± 0.040 | 0.0233 ± 0.005 | 2546.3 | 0.042 ± 0.059 |
| CN(C)c1cc2n(c(=O)c1)CC1CNC[C@@H]2C1 (single isomer, unassigned; (+)) [Compound 86, (+)4-(N,N′-dimethylamino)cytisine] |  |  | 5.8 |  |
| CCNc1cc2n(c(=O)c1)CC1CNCC2C1 (single isomer, unassigned; (+)) [Compound 87, (+)4-(N-ethylamino)cytisine] | 0.011 ± 0.001 | 0.010 ± 0.009 | 835.2 | 0.023 ± 0.032 |
| O=c1cc(N2CCNCC2)cc2n1CC1CNC[C@@H]2C1 (single isomer, unassigned; (+)) [Compound 90, (+)4-(N-piperazinyl)cytisine] |  |  | 14.1 |  |
| O=c1cc(N2CCOCC2)cc2n1CC1CNC[C@@H]2C1 (single isomer, unassigned; (+)) [Compound 92, (+)4-N-morpholinecytisine] |  |  | 70.6 |  |
| O=C(Nc1cc2n(c(=O)c1)CC1CNC[C@@H]2C1)c1ccccc1 (single isomer, unassigned; (+)) [Compound 96, (+)4-(N-Benzoylamino)cytisine] |  |  | 89.6 |  |
| Cl.O=c1cc(/C=C/c2ccccc2)cc2n1CC1CNC[C@@H]2C1 (single isomer, unassigned; (+)) [Compound 114, (+)4-(E-(2-phenylethenyl))cytisine] |  |  | 145.5 |  |
| C=Cc1cc2n(c(=O)c1)CC1CNC[C@@H]2C1 (single isomer, unassigned; (+)) [Compound 116, (+)4-Vinylcytisine] |  |  | 100.1 |  |
| Cl.O=c1cc(C#Cc2ccccc2)cc2n1CC1CNC[C@@H]2C1 (single isomer, unassigned; (+)) [Compound 129, (+)4-(phenylacetylene)cytisine] |  |  | 32.2 |  |
| CNc1cc2n(c(=O)c1Br)CC1CNC[C@@H]2C1 (single isomer, unassigned; (+)) [Compound 158, (+)3-Bromo-4-N-methylaminocytisine] | 0.049 ± 0.012 | 0.057 ± 0.016 | 106.9 | 0.038 ± 0.054 |
| Cl.O=c1c(Br)c(I)cc2n1CC1CNC[C@@H]2C1 (single isomer, unassigned; (+)) [Compound 160, (+)3-Bromo-4-iodocytisine] |  |  | 50.0 |  |
| O=c1c(Br)c(O)cc2n1CC1CNCC2C1 (single isomer, unassigned; (-)) [BS70, (−)-(3-bromo-4-hydroxy)cytisine] | 0.114 ± 0.113 | 0.108 ± 0.149 |  |  |
| CCc1cc2n(c(=O)c1Br)CC1CNCC2C1 (single isomer, unassigned; (-)) [BS74, (−)-(3-bromo-4-ethyl)cytisine] | 0.126 ± 0.067 | 1.75 ± 0.56 |  | 0.121 ± 0.171 |
| Cl.O=c1cc(C(F)(F)F)cc2n1CC1CNC[C@@H]2C1 (single isomer, unassigned; (-)) [Compound 77, (−)4-Trifluoromethylcytisine] |  |  | 12.9 |  |

| Molecule | Relative efficacy (ACh) [1] | Relative efficacy (ACh) [2] | Ratio α3β4/α4β2 [3] | Relative efficacy (ACh) [4] |
| --- | --- | --- | --- | --- |
| Cl.O=c1cc(CC(F)(F)F)cc2n1CC1CNC[C@@H]2C1 (single isomer, unassigned; (-)) [Compound 79, (−)4-(2,2,2-Trifluoroethyl)cytisine] |  |  | 27.4 |  |
| Cl.O=c1ccccn1-c1cc2n(c(=O)c1)CC1CNC[C@@H]2C1 (single isomer, unassigned; (-)) [Compound 108, (−)4-(N-2-pyridone)cytisine] |  |  | 90.3 |  |
| COC(=O)c1cc2n(c(=O)c1)CC1CNC[C@@H]2C1 (single isomer, unassigned; (-)) [Compound 119, (−)4-carboxymethycytisine] | 0.021 ± 0.007 | 0.040 ± 0.049 | 366.5 | 0.0065 ± 0.0005 |
| O=C(O)c1cc2n(c(=O)c1)CC1CNC[C@@H]2C1 (single isomer, unassigned; (-)) [Compound 120, (−)4-Carboxylic acidcytisine] |  |  | 57.7 |  |
| O=C(O)[C@@H]1CCCN1c1cc2n(c(=O)c1)CC1CNC[C@@H]2C1 (single isomer, unassigned; (-)) [Compound 138, (−)4-(N-(L-proline)cytisine] |  |  | 2.7 |  |
| Cl.NC(=O)c1cc2n(c(=O)c1)CC1CNC[C@@H]2C1 (single isomer, unassigned; (-)) [Compound 142, (−)4-(carboxyamido)cytisine] |  |  | 36.2 |  |
| NCc1cc2n(c(=O)c1)CC1CNC[C@@H]2C1 (single isomer, unassigned; (-)) [Compound 144, (−)4-(aminomethyl)cytisine] |  |  | 78.0 |  |
| O=c1cc(-c2nnn[nH]2)cc2n1CC1CNC[C@@H]2C1 (single isomer, unassigned; (-)) [Compound 149, (−)4-tetrazoylcytisine] |  |  | 149.2 |  |
| CNCc1cc2n(c(=O)c1)CC1CNC[C@@H]2C1 (single isomer, unassigned; (-)) [Compound 152, (−)4-((N-methyl)aminomethyl)cytisine] | 0.031 ± 0.043 |  | 807.0 |  |
| Cl.O=c1cc(CCc2ccccc2)cc2n1CC1CNC[C@@H]2C1 [?] |  |  | 21.7 |  |
| CC(=O)OCC[N+](C)(C)C [ACh, reference compound] | 1 | 1.0 |  | 1.0 |
| O=c1cc(NCc2ccccc2)cc2n1CC1CNC[C@@H]2C1 [Compound 78] |  |  | 125.0 |  |
| NCC(=O)Nc1cc2n(c(=O)c1)CC1CNC[C@@H]2C1 [Compound 98] |  |  | 1670.0 |  |
| CN(C)Cc1cc2n(c(=O)c1)CC1CNC[C@@H]2C1 [Compound 151, 4-(dimethylamino)methyl-(−)-cytisine] |  |  | 105.7 |  |
| (+)4-(E-2-propenoate methyl ester)cytisine [Compound 112] |  |  | 152.8 |  |
| (−)4-(3-Pyridinyl)cytisine [Compound 104] |  |  | 168.7 |  |
